The source of these data is patent US20110117055A1, “Methods of Treating Hepatitis C Virus with Oxoacetamide Compounds” (priority 2009, published 2011).

Molecules are shown by their SMILES. “Also recorded” adds a separate entry of the source. Where two headings read alike, the source gives them in different places.

Data set [1] relates to HCV2aChLuc virus. Description: In vitro HCVcc entry assay: HCV2aChLuc virus infection of Huh7 cells, Renilla luciferase read-out. The data set is classed as cell-based, HCV genotype 2a. Conditions: for IC50: Hepatitis C virus.
Data set [2] deals with HCV genotype 1b subgenomic replicon. Put plainly: HCV replicon assay (HCV1b replicon cells, NS5A ELISA). The format is cell-based. The note with it: 3 days. Here is the method:
Alternatively, Hut1b cells (Huh7 cells stably replicating HCV genotype 1b subgenomic replicon) were treated with serial dilutions of the test compound for 72 hours. Replication efficiency was monitored by ELISA assay using anti-HCV NS5A monoclonal antibody (Virogen).
Increasing amounts of compound were inoculated onto HCV1b replicon cells and incubated for 3 days. Following incubation, HCV replication was monitored with NS5A protein expression by ELISA.

The test system of data set [3] is Bovine viral diarrhea virus (BVDV). Put plainly: BVDV plaque-forming assay in MDBK cells. The note with it: even at 1 μM. The data set is classed as cell-based. Here is the method: Bovine viral diarrhea virus (BVDV) is a closely related virus to HCV, belonging to the same Family, Flaviviridae. To validate the specificity of antiviral activity, BVDV infection was done with MDBK cells in the presence of compounds provided herein. MDBK cells (70 to 80% confluent) were infected with a diluted virus. Following 1 h of adsorption at 37° C., cells were washed once with DMEM, overlaid with 1.5% low-melting-point (LMP) agarose (Gibco-BRL) in MEM containing 5% HS, and incubated at 37° C. To assay for plaque-forming virus, after 3 days monolayers were fixed with 3.7% formaldehyde for 2 h at room temperature, the agarose plugs were removed, and the monolayers were stained with crystal violet.

The subject of data set [4] is HCV1a/2a chimeric virus. Description: HCV entry assay with HCV1a/2a chimeric virus. The data set is classed as cell-based, HCV genotype 1a. The note with it: compared with HCV2a chimeric virus. From the text: Since HCV genotype 1 is the most prevalent genotype among the variants of HCV, we constructed an HCV1a/2a chimeric infectious clone with two cell-culture adaptive mutations introduced. Sequences for the structural proteins (including C, E1, and E2), p7, and NS2 were derived from HCV genotype 1a H77 strain. The rest of nonstructural proteins (NS3 to NS5B) and 3′ NTR were derived from HCV genotype 2a JFH strain. 5′NTR was originated from HCV2aJ6 (FIG. 7). […] Therefore, both HCV1a/2aCh virus and HCV1a/2aChLuc virus with Y361H and Q1251L mutations were successively produced in Huh7 cells and used for HCV entry assay.

The test system of data set [5] is HCV1a chimeric virus and 2a chimeric virus. Put plainly: Combination of viral entry inhibitor with ribavirin. The data set is classed as cell-based, HCV. Conditions: ribavirin 15 μM. Here is the method: Varying amounts of each compound were coincubated with a high concentration of ribavirin (15 μM).
Data set [6] relates to HCV. Description: Combination of viral entry inhibitor with HCV protease inhibitor VX-950. Conditions: fixed ratio based on EC50. The format is cell-based.
Method: Additional combination studies of Compound 1 and Compound 5 with the HCV NS3 protease inhibitor VX-950 were conducted. Compound 1 and Compound 5 were tested singly and in combination with VX-950. The ratio of the two compounds, based on the compound's EC50, remained fixed across the dosing range. The potential cytotoxicity of individual compounds was assessed with a luminescent ATP-based cell viability assay (Cell Titer-Glo; Promega). Cell culture and luciferase compound assays were performed as previously described in Example 3.
Compound interactions were quantified by the approach described by Chou and Talalay, relying on the median effect principle and the multiple-drug effect equation. […] Isobolograms were generated for each combination tested and were used to determine the additivity, synergism or antagonism of inhibitor combinations. Combination indices (CI) were determined with Calcusyn (Biosoft) for each experiment at the EC50, EC75, and EC90 of the combination. By convention, a CI of <0.9 was considered synergistic, a CI of ≧0.9 or ≦1.1 was considered additive, and a CI of >1.1 was deemed antagonistic. […] Combination indices (CI) were determined with Calcusyn (Biosoft) for each experiment at the EC50, EC75, and EC90 of the combination. By convention, a CI of <0.9 was considered synergistic, a CI of ≧0.9 or ≦1.1 was considered additive, and a CI of >1.1 was deemed antagonistic.
For data set [7], the system named is HCV2aChLuc (NS3:A156S). Put plainly: Infectivity of protease mutant virus versus wild type in the presence of compounds. The data set is classed as cell-based, HCV genotype 2a. The note with it: HCV2aChLuc (NS3:A156S) vs wild type HCV2aChLuc. From the text: Therefore, we introduced A156S mutation in the backbone of HCV2aChLuc genome and investigated the infectivity of the mutant virus in the presence of compounds.

Data set [8] relates to HCV2aCh (E2:G451R) mutant virus. Put plainly: E2:G451R mutant virus, Taqman assay for viral RNA copies. The data set is classed as cell-based, HCV genotype 2a. Conditions: 0-500 nM; about 27.5 hours after virus exposure. As to the method:
Two 24-well plates were seeded with 4×10^4 cells/well. The following day, cell culture supernatant was aspirated and cells were exposed to HCV2aCh wild type (black bars) and HCV2aCh (E2:G451R) mutant (blue bars), Approximately 250 μl of cell culture virus was added to each well (˜1×10^4 TCID/well or moi ˜0.25). Immediately after the addition of virus to the well, 2.5 μl of 100× concentration of compound was added to each well—and mixed multiple times with a 100 ul pipet tip—to achieve final compound dilutions: 0 nM, 5 nM, 15 nM, 50 nM, 150 nM, and 500 nM. Compound 5 was tested. Each plate was processed consecutively. After addition of virus and compound the plates were placed in the incubator for ˜3.5 hours (37° C., 5% CO2). Following incubation, the supernatant was replaced with fresh media (˜1 ml/well) and plates were returned to incubator. Twenty-four hours later (˜27.5 hours following virus exposure to the cells), cells were washed once with 1 ml of PBS and then the cells were processed for Taqman analysis.
(Quantitative PCR measures a nucleic acid by following its amplification.)

Data set [9] can be described thus: Cytotoxicity of anti-HCV compounds (CC50, Table 4). The note with it: human, Huh7.5.1 cells.

The IC50 is the midpoint of a concentration-inhibition curve. The CC50 is the concentration that lowers cell viability or growth by half. Consider `COc1c(NC(=O)C(=O)c2ccc(OCCN3CCOCC3)c3ccccc23)cc(C(C)(C)C)cc1NS(C)(=O)=O` [Compound 5, N-(5-tert-butyl-2-methoxy-3-(methylsulfonamido)phenyl)-2-(4-(2-morpholinoethoxy)naphthalen-1-yl)-2-oxoacetamide], for which the 50% inhibitory concentration (IC50) in data set [1] (Huh-7, 72 h, read-out: observed IC50, Huh7 cells co-incubated with HCV2aChRluc virus and compound for 3 days, repeated assays (n>30)) was 0.05 to 0.5 nM; in data set [1] (Huh-7, read-out: Activity class (IC50), tested according to the method of Example 3), less than 5 nM. Also, the “inhibitory effect on HCV2aChLuc viral entry” value in data set [1] (Huh7 cells, 3 days) is “dose-dependent inhibitory effect; also recorded: dose-dependent inhibition”. Also, in data set [2], the “effect on HCV replication (NS5A protein expression by ELISA)” value is listed as “did not measurably inhibit; also recorded: no measurable effect”. For the same compound, in data set [3], the “inhibitory effect on BVDV infection” value is given as “No significant inhibitory effect”. For the same compound, the “inhibition of HCV1a chimeric virus” value in data set [4] was “inhibited”. In data set [5], the “effect of combination with ribavirin” value is listed as “no antagonistic effect”. For the same compound, the “effect of combination with VX-950” value in data set [6] was “additive to slightly synergistic effects”. For the same compound, the “resistance of NS3:A156S mutant virus versus wild type (inhibition of infectivity)” value in [7] is “no significant difference”. Also, the “sensitivity of E2 mutant virus relative to wild-type virus, Taqman assay for viral RNA copies” value in data set [8] was “greater resistance”. The compound also gave a CC50 in data set [9] greater than 100000 nM.
